The target in one test is KRas G12D mutant (Homo sapiens (Human), UniProt P01116, G12D). The test can be described thus: Ras GTP Binding Domain Inhibition Assay, KRas G12D mutant. The conditions noted are these: for inhibition at 20 µM: Table 7; for KRas G12D mutant + SOS: % inh. / KRas G12D mutant: % inh.: 20 uM, Table 8. The essentials:
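Steps: coat His-tagged protein (10-30 μg/mL) on nickel wells overnight at 4° C; add test compound, 20 μM final or serial dilution, 1% DMSO, 3 h RT; optional Sos final hour; add 100 nM Cy3-GTP or Cy5-GTP, 45 min; wash and read fluorescence.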

The next test has as its system Smad2/3 phosphorylation. Kind of test: Phospho-Smad2/3 Inhibition Assay in Panc-1 (western blot). The class given is cell-based. The conditions noted are these: Homo sapiens; 10 μM, 3 hours; PANC-1 stimulated with 10 ng/ml TGF-b1 for 1 hour; read-out: % inh of Smad2/3 phosphorylation in PANC-1. An outline of the steps:
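Serum-starved cells (0.5% FBS overnight) pretreated 3 h at 37 °C with compound at 10 μM or serial dilutions for IC50, in 0.3% DMSO. TGF-b1 10 ng/ml stimulation: 1 h for Panc-1 (human), 20 min for C2C12 (mouse). Phospho-Smad2 (Ser465/467) and phospho-Smad3 (Ser423/425) measured by western blot of lysates.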

The next test relates to MiaPaca2. Kind of test: MiaPaca2 proliferation. The class given is cell-based. The conditions noted are these: Homo sapiens, MIA PaCa-2; for inhibition at 10 µM: read-out: % inh of proliferation in MiaPaca2.
A further test deals with MAPK p38. The test can be described thus: MAPK p38 Activation Assay in Panc-1 (western blot). The class given is cell-based, Human. On the set-up: key: Y = yes; N = No. The conditions noted are these: at 10 μM. An outline of the steps: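 Cells serum-starved overnight in 0.5% FBS, then compound 3 h at 37° C (10 μM or serial dilutions for IC50; 0.3% DMSO). TGF-b1 10 ng/ml stimulation followed: 1 h for Panc-1, 20 min for C2C12. Phospho-p38 (Thr180/Tyr182) measured by western blot of lysates.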

[1] abbreviates: + SOS, read-out: KRas G12D mutant + SOS: % inh.
[2] abbreviates: without SOS, read-out: KRas G12D mutant: % inh.

Like-named read-outs stand apart in the source and are kept apart here. Bounds are passed on as bounds.

Sequence of KRas G12D mutant (P01116 other isoform, or with tags, fused parts or gaps G12D): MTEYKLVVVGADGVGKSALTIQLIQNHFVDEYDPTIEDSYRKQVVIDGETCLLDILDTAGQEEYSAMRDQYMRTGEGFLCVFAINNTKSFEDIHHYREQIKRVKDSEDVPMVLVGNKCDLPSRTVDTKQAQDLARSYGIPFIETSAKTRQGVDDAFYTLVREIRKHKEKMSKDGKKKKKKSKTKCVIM

Take `COc1cc(Nc2nc(-c3nccn3C)nc3sc(-c4ccn(C(C)C)n4)c(C)c23)ncn1` [Compound 19, 6-(1-Isopropyl-1H-pyrazol-3-yl)-N-(6-methoxypyrimidin-4-yl)-5-methyl-2-(1-methyl-1H-imidazol-2-yl)thieno[2,3-d]pyrimidin-4-amine]: the inhibition at 20 µM is 46 to 75% on KRas G12D mutant (setting [1]) and 26 to 45% at KRas G12D mutant (setting [2]). The “KRas G12D mutant + SOS: % inh.” value at KRas G12D mutant (+ SOS) was “C (C = 46-75% inhibition)”. The “KRas G12D mutant: % inh.” value on KRas G12D mutant (without SOS) is given as “B (B = 26-45% inhibition)”. In addition, the inhibition at 10 µM in the test with Smad2/3 phosphorylation and in the test on MiaPaca2 was 76 to 100% throughout. In the test on MiaPaca2, this compound gave an IC50 of 1 to 4.99 µM. For the same compound, in the test on MAPK p38, the “Activation of MAPK p38 in PANC-1” value was “Y”.

With `COCCOCCNc1nc(-c2nccn2C)nc2sc(-c3ccn(C(C)C)n3)c(C)c12` [Compound 21, 6-(1-Isopropyl-1H-pyrazol-3-yl)-N-(2-(2-methoxyethoxy)ethyl)-5-methyl-2-(1-methyl-1H-imidazol-2-yl)thieno[2,3-d]pyrimidin-4-amine], the inhibition at 20 µM on KRas G12D mutant (setting [1]) and on KRas G12D mutant (setting [2]) was 76 to 100% in each case. The “KRas G12D mutant + SOS: % inh.” value at KRas G12D mutant (+ SOS) is “D (D = 76-100% inhibition)”. At KRas G12D mutant (without SOS), the “KRas G12D mutant: % inh.” value is listed as “D (D = 76-100% inhibition)”. For the same compound, the inhibition at 10 µM is 0% with Smad2/3 phosphorylation and 76 to 100% in the test on MiaPaca2. The same compound registered an IC50 with MiaPaca2 of 5 to 10 µM. Also, in the test with MAPK p38, the “Activation of MAPK p38 in PANC-1” value is on record as “Y”.

Take `Cc1c(-c2ccn(C(C)C)n2)sc2nc(-c3nccn3C)nc(NCCN3CCOCC3)c12` [Compound 22, 6-(1-Isopropyl-1H-pyrazol-3-yl)-5-methyl-2-(1-methyl-1H-imidazol-2-yl)-N-(2-morpholinoethyl)thieno[2,3-d]pyrimidin-4-amine]: the inhibition at 20 µM on KRas G12D mutant (setting [1]) and at KRas G12D mutant (setting [2]) was 76 to 100% each time. Also, at KRas G12D mutant (+ SOS), the “KRas G12D mutant + SOS: % inh.” value was “D (D = 76-100% inhibition)”. Moreover, the “KRas G12D mutant: % inh.” value at KRas G12D mutant (without SOS) is reported as “D (D = 76-100% inhibition)”. For the same compound, the inhibition at 10 µM was 0% in the test on Smad2/3 phosphorylation and 76 to 100% with MiaPaca2. The 50% inhibitory concentration (IC50) with MiaPaca2 fell in the range of 5 to 10 µM. The “Activation of MAPK p38 in PANC-1” value with MAPK p38 is on record as “Y”.

Take `Cc1c(-c2ccn(C(C)C)n2)sc2nc(-c3nccn3C)nc(NCCN3CCS(=O)(=O)CC3)c12` [Compound 23, 4-(2-((6-(1-Isopropyl-1H-pyrazol-3-yl)-5-methyl-2-(1-methyl-1H-imidazol-2-yl)thieno[2,3-d]pyrimidin-4-yl)amino)ethyl)thiomorpholine 1,1-dioxide]: the inhibition at 20 µM on KRas G12D mutant (setting [1]) and at KRas G12D mutant (setting [2]) was 76 to 100% throughout. On KRas G12D mutant (+ SOS), the “KRas G12D mutant + SOS: % inh.” value is reported as “D (D = 76-100% inhibition)”. On KRas G12D mutant (without SOS), the “KRas G12D mutant: % inh.” value is “D (D = 76-100% inhibition)”. The inhibition at 10 µM in the test with Smad2/3 phosphorylation and in the test with MiaPaca2 was 0% each time. The compound also displayed an IC50 in the test on MiaPaca2 greater than 10 µM. Further, the “Activation of MAPK p38 in PANC-1” value in the test with MAPK p38 is reported as “Y”.

On to `CO[C@H]1CNC[C@@H](Nc2nc(-c3nccn3C)nc3sc(-c4ccn(C(C)C)n4)cc23)C1` [Compound 28, 6-(1-Isopropyl-1H-pyrazol-3-yl)-N-((3S,5R)-5-methoxypiperidin-3-yl)-2-(1-methyl-1H-imidazol-2-yl)thieno[2,3-d]pyrimidin-4-amine], for which the inhibition at 20 µM at KRas G12D mutant (setting [1]) fell in the range of 76 to 100%; at KRas G12D mutant (setting [2]) it was 46 to 75%. On KRas G12D mutant (+ SOS), the “KRas G12D mutant + SOS: % inh.” value is listed as “D (D = 76-100% inhibition)”. Further, the “KRas G12D mutant: % inh.” value on KRas G12D mutant (without SOS) was “C (C = 46-75% inhibition)”. In addition, the figures for the inhibition at 10 µM in the test with Smad2/3 phosphorylation and in the test on MiaPaca2 were 0% and 76 to 100%, respectively. This compound also displayed an IC50 in the test on MiaPaca2 of 5 to 10 µM. Also, in the test on MAPK p38, the “Activation of MAPK p38 in PANC-1” value is listed as “Y”.

These data come from patent publication US20240124483A1, “Methods for the Treatment of Fibrotic Disease” (SHY Therapeutics, LLC, priority 2021, published 2024).
